Data published in BindingDB's records for patent US20240139197 (The Wistar Institute of Anatomy and Biology, 2024).

Experiments:
Assay in all cases: Biochemical Assay
[1] = biological target: Lysine-specific demethylase 5A (Homo sapiens, UniProt P29375)
[2] = biological target: Lysine-specific demethylase 5B (Homo sapiens, UniProt Q9UGL1)
[3] = biological target: T1, Lysine-specific demethylase 4C (Homo sapiens, UniProt Q9H3R0)
T1 sequence (Q9H3R0 whole entry): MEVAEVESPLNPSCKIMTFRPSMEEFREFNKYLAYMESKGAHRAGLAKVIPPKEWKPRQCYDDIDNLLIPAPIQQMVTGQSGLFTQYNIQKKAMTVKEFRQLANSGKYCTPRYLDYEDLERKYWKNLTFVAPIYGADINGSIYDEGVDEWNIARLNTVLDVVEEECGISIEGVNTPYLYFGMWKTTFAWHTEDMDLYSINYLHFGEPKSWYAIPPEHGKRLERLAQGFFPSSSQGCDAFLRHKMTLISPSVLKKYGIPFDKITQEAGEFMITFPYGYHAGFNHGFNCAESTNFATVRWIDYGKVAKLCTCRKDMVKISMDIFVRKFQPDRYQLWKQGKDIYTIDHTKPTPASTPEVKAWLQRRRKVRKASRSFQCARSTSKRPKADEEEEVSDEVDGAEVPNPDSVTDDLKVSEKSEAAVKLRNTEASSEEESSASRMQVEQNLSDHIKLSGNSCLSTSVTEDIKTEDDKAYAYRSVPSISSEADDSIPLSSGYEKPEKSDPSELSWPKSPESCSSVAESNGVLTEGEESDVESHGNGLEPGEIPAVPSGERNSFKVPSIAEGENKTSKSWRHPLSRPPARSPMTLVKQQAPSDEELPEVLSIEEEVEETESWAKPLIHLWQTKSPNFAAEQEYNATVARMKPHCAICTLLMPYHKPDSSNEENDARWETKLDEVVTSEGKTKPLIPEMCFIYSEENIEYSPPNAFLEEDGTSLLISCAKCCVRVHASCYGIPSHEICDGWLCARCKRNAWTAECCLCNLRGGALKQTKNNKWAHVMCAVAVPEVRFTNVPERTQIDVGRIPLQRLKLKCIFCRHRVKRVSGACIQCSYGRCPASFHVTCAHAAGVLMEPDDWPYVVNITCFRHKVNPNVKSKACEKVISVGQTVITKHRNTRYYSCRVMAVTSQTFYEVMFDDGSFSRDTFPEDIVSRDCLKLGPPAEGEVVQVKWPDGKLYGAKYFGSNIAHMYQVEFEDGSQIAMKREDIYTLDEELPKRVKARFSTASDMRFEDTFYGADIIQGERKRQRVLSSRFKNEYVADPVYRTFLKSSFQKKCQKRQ

Lysine-specific demethylase 5A, sequence (P29375 whole entry): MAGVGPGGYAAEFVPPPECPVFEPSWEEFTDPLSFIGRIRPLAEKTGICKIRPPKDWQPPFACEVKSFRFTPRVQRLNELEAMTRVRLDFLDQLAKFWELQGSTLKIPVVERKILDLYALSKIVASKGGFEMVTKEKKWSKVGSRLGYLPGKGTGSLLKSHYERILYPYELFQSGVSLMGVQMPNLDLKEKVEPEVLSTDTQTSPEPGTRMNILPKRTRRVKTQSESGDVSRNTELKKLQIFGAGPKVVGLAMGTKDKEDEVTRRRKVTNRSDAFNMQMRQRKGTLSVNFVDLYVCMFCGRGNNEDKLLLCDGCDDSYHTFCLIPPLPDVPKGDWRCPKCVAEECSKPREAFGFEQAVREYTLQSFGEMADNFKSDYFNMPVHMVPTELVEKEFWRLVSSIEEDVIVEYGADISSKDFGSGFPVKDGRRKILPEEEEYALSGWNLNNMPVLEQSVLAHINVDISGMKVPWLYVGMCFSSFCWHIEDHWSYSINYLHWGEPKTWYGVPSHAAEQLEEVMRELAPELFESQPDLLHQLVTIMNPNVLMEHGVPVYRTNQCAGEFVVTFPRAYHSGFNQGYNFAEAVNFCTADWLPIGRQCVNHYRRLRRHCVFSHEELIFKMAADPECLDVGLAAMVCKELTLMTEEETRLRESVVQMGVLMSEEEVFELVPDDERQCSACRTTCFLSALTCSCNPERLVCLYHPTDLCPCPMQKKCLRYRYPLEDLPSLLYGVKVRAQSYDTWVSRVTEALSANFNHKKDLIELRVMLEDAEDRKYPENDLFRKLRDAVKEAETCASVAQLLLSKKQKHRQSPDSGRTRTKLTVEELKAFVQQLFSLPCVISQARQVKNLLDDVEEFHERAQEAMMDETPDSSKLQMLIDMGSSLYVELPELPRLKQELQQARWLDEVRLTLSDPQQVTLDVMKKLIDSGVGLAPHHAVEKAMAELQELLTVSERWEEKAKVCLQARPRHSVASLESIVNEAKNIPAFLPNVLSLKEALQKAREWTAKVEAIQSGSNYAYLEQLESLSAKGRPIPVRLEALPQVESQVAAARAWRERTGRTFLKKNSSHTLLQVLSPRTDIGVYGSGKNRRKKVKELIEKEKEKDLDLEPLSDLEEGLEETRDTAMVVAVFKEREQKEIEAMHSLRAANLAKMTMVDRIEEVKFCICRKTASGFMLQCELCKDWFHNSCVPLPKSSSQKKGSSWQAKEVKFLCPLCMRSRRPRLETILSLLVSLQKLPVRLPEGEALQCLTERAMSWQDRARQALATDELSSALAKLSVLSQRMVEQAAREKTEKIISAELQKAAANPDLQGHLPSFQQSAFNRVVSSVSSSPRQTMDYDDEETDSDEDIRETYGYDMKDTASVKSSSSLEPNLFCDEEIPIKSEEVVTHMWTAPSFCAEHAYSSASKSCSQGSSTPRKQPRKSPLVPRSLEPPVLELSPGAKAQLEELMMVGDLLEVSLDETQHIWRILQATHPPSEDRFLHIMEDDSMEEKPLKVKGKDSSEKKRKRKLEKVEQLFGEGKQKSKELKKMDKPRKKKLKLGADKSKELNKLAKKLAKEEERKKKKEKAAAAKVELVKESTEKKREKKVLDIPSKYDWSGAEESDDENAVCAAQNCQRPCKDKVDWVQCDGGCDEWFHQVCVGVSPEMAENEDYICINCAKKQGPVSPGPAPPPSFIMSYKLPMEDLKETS
Lysine-specific demethylase 5B, sequence (Q9UGL1 whole entry): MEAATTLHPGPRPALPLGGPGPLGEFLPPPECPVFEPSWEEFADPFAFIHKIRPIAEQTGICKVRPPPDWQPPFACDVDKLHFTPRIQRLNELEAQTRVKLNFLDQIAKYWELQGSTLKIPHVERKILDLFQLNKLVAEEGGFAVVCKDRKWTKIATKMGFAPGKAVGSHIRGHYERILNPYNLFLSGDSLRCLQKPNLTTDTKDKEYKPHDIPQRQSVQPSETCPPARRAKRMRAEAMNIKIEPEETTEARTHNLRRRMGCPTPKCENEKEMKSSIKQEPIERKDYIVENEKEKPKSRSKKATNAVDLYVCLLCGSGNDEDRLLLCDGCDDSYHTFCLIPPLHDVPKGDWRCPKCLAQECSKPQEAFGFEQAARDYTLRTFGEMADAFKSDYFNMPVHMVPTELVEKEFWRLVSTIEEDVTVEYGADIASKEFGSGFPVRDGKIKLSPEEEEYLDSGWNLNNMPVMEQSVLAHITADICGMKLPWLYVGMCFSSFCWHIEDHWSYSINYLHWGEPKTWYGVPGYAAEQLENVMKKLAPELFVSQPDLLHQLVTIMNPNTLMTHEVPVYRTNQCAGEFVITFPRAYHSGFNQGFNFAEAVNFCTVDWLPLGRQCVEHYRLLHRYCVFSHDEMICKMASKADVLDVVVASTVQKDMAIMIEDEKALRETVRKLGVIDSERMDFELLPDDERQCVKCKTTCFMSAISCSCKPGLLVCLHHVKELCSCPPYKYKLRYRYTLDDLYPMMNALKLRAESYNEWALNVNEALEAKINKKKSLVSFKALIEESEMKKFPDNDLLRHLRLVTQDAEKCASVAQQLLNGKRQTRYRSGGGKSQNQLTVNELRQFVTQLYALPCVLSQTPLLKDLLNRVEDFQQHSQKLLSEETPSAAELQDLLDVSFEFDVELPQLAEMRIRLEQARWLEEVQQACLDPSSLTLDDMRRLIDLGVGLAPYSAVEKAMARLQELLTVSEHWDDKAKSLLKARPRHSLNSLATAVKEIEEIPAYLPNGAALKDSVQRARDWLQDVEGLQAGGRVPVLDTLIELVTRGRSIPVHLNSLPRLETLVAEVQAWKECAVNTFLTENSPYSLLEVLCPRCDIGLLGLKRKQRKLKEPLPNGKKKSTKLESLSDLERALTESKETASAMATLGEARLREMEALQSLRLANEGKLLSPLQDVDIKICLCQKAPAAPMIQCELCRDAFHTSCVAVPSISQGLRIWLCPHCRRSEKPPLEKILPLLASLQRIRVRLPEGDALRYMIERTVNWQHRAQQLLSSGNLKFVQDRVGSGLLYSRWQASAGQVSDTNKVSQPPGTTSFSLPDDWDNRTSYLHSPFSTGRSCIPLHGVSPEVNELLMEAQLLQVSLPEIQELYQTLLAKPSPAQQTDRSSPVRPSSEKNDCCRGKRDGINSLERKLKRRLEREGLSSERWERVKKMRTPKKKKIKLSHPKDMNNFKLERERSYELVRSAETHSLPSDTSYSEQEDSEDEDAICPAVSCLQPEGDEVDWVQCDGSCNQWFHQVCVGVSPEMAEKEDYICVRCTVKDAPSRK

| SMILES | IC50 [1] | IC50 [2] | IC50 [3] |
| --- | --- | --- | --- |
| Bc1cc(Cl)ccc1COc1ccnn1-c1cc(C(=O)O)ccn1 [US20240139197, Compound 21] | 14 nM | 4 nM | 54 nM |
| COc1cc(Cl)ccc1COc1ccnn1-c1cc(C(=O)O)ccn1 [US20240139197, Compound 34] |  | 3 nM |  |
| O=C(O)c1ccnc(-n2nccc2OCc2ccc(Cl)cc2OCC2CC2)c1 [US20240139197, Compound 36] | 25 nM | 36 nM |  |

Next, values leading:

| IC50 [1] | IC50 [2] | IC50 [3] | SMILES |
| --- | --- | --- | --- |
| 170 nM |  |  | CC(C)c1c[nH]c2c(C#N)cnn2c1=O [US20240139197, Compound 7] |
| 18 nM |  |  | CCOc1cc(Cl)ccc1COc1ccnn1-c1cc(C(=O)O)ccn1 [US20240139197, Compound 35] |
